Calls of active or inactive are those of the source.
Key:
cells [1] = format: functional, cell-based
cells [2] = format: functional, cell-based; remark: listed apart in the source
[3] = potency of ADAM10 substrate cleavage blockers – biochemical, QFRET, dose response (AID 743254);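 note: ADAM10 enzyme with the DM2 quenched FRET peptide as substrate; EDANS fluorescence gain as the protease cuts the substrate; inhibitor potency against ADAM10 proteolytic activity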
[4] = target: Disintegrin and metalloproteinase domain-containing protein 17 (Homo sapiens, UniProt P78536); assay: inhibition of ADAM17 substrate cleavage – biochemical, quenched FRET substrate, counter-screen for ADAM10 exosite inhibitor project, dose response (AID 743253)
Paired box protein Pax-8 = Paired box protein Pax-8 (Homo sapiens, UniProt Q06710); assay: PAX8 transcriptional activity inhibition in RMG-I – RMG-I cells, luciferase, cherry-pick, dose response (AID 687027); format: functional, cell-based;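 note: luciferase reporter driven by Pax8 target thyroperoxidase promoter measured by SteadyGlo luminescence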
[5] = toxicity toward immortalized ovarian surface epithelium – cell-based, plate reader, dry powder samples, cytotoxicity control for PAX8 inhibitor project, dose response (AID 743045); format: functional
[6] = OVCAR-3 cell viability loss – plate reader, dry powder samples, PAX8 inhibitor project, dose response (AID 743044); format: functional, cell-based
[7] = IGROV1 cell killing – plate reader, dry powder samples, PAX8 inhibitor project, dose response (AID 743043); format: functional, cell-based; conditions: IGROV-1
[8] = OVCAR8 cell viability loss – plate reader, dry powder samples, PAX8 project, dose response (AID 743197); format: functional, cell-based; conditions: OVCAR-8
[9] = MITF Orthogonal Assay: SK-MEL-5 CTG Assay Measured in Cell-Based System Using Plate Reader - 2084-02_Inhibitor_Dose_DryPowder_Activity_Set7.; format: functional
[10] = MITF: Counter assay: A375 proliferation Measured in Cell-Based System Using Plate Reader - 2084-03_Inhibitor_Dose_DryPowder_Activity_Set8.; format: functional; conditions: A-375
[11] = inhibitors of TRPM1-promoter reporter in SK-MEL-5 – cell-based, luciferase, dry powder, set 8, MITF inhibitor project, dose response (AID 624430); format: functional

Disintegrin and metalloproteinase domain-containing protein 17, sequence (P78536 whole entry, the tested form may be a part): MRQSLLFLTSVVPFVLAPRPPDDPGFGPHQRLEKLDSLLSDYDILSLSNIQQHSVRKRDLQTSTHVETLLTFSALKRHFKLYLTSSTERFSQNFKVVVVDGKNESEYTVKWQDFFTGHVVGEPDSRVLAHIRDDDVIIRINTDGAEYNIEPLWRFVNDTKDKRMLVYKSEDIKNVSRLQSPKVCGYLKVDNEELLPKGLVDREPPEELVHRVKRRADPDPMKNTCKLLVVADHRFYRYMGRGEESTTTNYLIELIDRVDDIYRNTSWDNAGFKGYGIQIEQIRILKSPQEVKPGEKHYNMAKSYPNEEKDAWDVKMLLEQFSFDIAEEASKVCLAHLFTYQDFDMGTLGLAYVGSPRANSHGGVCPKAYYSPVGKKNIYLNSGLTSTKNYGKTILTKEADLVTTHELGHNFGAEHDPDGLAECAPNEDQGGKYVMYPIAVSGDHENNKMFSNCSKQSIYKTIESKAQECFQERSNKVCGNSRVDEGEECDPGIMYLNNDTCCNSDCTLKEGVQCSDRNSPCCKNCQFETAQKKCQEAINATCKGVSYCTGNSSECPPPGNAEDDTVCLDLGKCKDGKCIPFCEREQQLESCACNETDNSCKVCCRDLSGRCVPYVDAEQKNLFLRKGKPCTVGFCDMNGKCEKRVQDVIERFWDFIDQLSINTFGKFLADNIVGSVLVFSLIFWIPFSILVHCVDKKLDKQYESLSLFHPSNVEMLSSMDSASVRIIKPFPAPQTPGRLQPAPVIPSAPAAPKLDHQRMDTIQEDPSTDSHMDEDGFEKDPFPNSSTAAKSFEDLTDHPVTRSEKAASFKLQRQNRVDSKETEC
Paired box protein Pax-8, sequence (Q06710 whole entry): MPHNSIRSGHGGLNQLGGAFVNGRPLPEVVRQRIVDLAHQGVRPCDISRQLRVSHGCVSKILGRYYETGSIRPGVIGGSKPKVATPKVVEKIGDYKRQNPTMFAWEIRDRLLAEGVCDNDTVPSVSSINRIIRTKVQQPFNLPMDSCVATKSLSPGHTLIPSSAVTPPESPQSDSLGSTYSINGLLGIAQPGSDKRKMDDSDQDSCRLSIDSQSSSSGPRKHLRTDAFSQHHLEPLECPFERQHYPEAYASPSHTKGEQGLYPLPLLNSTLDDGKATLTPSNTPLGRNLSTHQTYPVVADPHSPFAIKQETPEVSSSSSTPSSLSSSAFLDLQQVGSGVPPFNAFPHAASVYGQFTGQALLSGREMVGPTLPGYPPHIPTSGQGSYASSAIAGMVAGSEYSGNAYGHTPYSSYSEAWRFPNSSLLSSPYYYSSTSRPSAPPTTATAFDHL

COc1ccc(S(=O)(=O)N2CCC(c3cc(-c4cccc5ccccc45)[nH]n3)CC2)cc1
inactive: IC50 [3] > 69.5 µM | IC50 [4] > 69.5 µM
> 350 µM (not active): EC50 (cells [1]) | EC50 (cells [2])

COc1cccc(S(=O)(=O)N2CC[C@@H]3[C@@H](CO)Nc4ccc(-c5ccccc5OC)cc4[C@@H]32)c1
active: AC50 (Paired box protein Pax-8) 10.6 µM | AC50 [5] 33 µM | AC50 [6] 19.6 µM | AC50 [7] 36.5 µM | AC50 [8] 31.1 µM

O=C1C(Nc2cccc(Cl)c2)=C(N2CCCCC2)C(=O)c2ccccc21
active: AC50 [9] 15.7 µM | AC50 [10] 50.1 µM | AC50 [11] 3.46 µM

Source: ChEMBL document CHEMBL1201862, “PubChem BioAssay data set” (2004)
